Data: article PMC7927014, “Novel Small Molecule Hsp90/Cdc37 Interface Inhibitors Indirectly Target K-Ras-Signaling” (Cancers, 2021)

What was measured:
[1] = tested on: MDA-MB-231 cells; test: 2D cell proliferation (alamarBlue); assay type: cell-based; settings: Homo sapiens, MDA-MB-231, 72 h
Procedure: Per well, 500–700 cells were seeded in 96-well flat bottom culture plates in 100 µL. After 24 h, the cells were treated with 0.1% DMSO vehicle control or test compounds diluted in a medium using a 1:2 dilution-series, starting at 100 µM. The plates were further incubated for 72 h. The cell viability was measured after the addition of 10% alamarBlue reagent per well (cat. no. DAL1100, Thermo Fisher Scientific). The fluorescence intensity (excitation 560 nm and emission 590 nm) was measured after 4 h by the use of a H1 Hybrid Multi-Mode reader.

[2] = target: T1, Hsp90/Cdc37 (Homo sapiens, UniProt P07900); test: Hsp90/Cdc37 split Renilla luciferase assay, full length Hsp90 (cell lysate; IC50 and 20 μM validation); assay type: biochemical; settings: MolPort Screening-3, tested concentration of drugs 20 μM
T1 construct: The Hsp90/Cdc37 split Renilla luciferase assay using the full length Hsp90 for the compound screening was described previously; expressed in transfected cells; host or cells: HEK293 EBNA cells, cleared lysates
Procedure: (§1) In the second in silico screening of the FIMM database, we employed the four identified chemical scaffolds (Figure S2B) for the visual inspection of the FIMM compound library. […] All of the purchased compounds were validated in vitro at 20 μM using the split Renilla luciferase assay.
(§2) The Hsp90/Cdc37 split Renilla luciferase assay using the full length Hsp90 for the compound screening was described previously. […] After 48 h, the cells were trypsinized and washed with PBS. The harvested cells were lysed in 1 mL of the 1x lysis buffer provided in the Renilla Luciferase Reporter Assay System Kit from Promega (cat. E2820), and were incubated on ice for 10 min. The cell lysates were then cleared by centrifugation at 13,000× g for 1 min. […] After this, the screening/test compounds or DMSO—as indicated—were added to each well. In total, 5 µL NRL-Hsp90- or NRL-N-Hsp90-lysate was added to each well, one row at a time. Subsequently, the plate was incubated for 5 min at room temperature (RT). […] Just before the reading, 20 µL assay buffer containing 2× Renilla luciferase substrate (coelenterazine) was added. For the FIMM screening, sample wells were read on a PHERAstar plate reader (BMG LABTECH) at a gain level of 4000, after 10 s shaking, using a hypomorph of NRL-Hsp90. For the subsequent validations of the compounds, sample wells with the above-described assay constructs were read using a synergy H1 Hybrid Multi-Mode reader (BioTek) in the luminescence detection mode, as described previously in detail.

[3] = target: T2, Hsp90α (N-terminal) (Homo sapiens, UniProt P07900); test: Hsp90 N-terminal ATP-binding site competition assay (FITC-geldanamycin fluorescence polarization)
T2 construct: purchased BPS Bioscience 50298
Procedure: The reaction was initiated by adding 35 ng/μL purified recombinant Hsp90α, and was incubated at RT with slow shaking for 2 h. All of the reactions were performed in a black, low binding NUNC microtiter plate, included in the kit, and the total reaction volume was 50 μL. The enzyme control was measured without the test compound, and the enzyme background control was measured without the test compound or Hsp90α. […] All of the controls and the blank contained 10% DMSO, as did all of the samples of the test compounds. All of the samples were analyzed as duplicates. […] The blank value was subtracted from all of the other values, and the fluorescence polarization was determined as:(1) mP = ((III − I⊥)/(III+ I⊥)) × 1000 where III is the intensity of the parallel, and I┴ the intensity of the perpendicular polarized light.

[4] = tested on: Hsp90/Cdc37; test: FIMM screening in split Renilla luciferase assay with hypomorphic NRL-Hsp90 construct, 20 μM; assay type: biochemical
Procedure: as §1, §2

[5] = tested on: Hsp90, Hsp70; test: Western blotting of Hsp90 and Hsp70 (heat shock response); assay type: cell-based; settings: Western blot, 24 h; four cancer cell lines; 17-AAG 2 μM
Procedure: (§3) The cells in the RIPA buffer were placed on ice for 20 min, and were then sonicated in ice cold water for 5 min. […] Equal amounts of protein were separated by 10% SDS-PAGE, and were then transferred onto a nitrocellulose membrane (cat. no. NBA 083C001EA, Protran) using a wet transfer system (Bio-Rad) or semidry Transferblot Turbo Transfer System (Bio-Rad). After the transfer, the membranes were blocked for 30 min in 5% skimmed milk dissolved in 1× TBST, and then incubated with 1:2000 primary antibodies in 5% BSA in TBST at 4 °C overnight.
(§4) The next day, the membranes were washed three times in TBST for 10 min, and then incubated with secondary antibodies (1:5000) diluted in 5% skimmed milk in TBST for 1 h at RT. […] All of the antigens and molecular weights in kDa are labelled next to the blots on the figures. Uncropped Western blot data are attached as Figure S6.

[6] = tested on: K-RasG12V nanoclustering; test: K-RasG12V nanoclustering-FRET (FLIM-FRET) in HEK cells; assay type: cell-based; settings: 24 h, conglobatin A 2 μM, salinomycin 1.3 μM, 17-AAG 2 μM, CAY10585 10 μM, hit compounds indicated concentrations
Procedure: In total, 80,000 HEK cells were seeded in 12-well plates containing sterilized 16-mm coverslips and 1 mL medium. The next day, the cells were transfected using jetPRIME or FuGENE HD transfection reagent. For the donor fluorophore-only samples, the cells were transfected with 500 ng mGFP-tagged RasG12V plasmid. For the nanoclustering-FRET pair samples, the cells were transfected with both the donor and acceptor constructs, i.e., pmGFP- and pmCherry- RasG12V at a plasmid ratio of 1:3, respectively, and a total of 800 ng plasmids. The next day, the cells were treated with either 0.1% DMSO vehicle control or the indicated concentrations of compounds diluted in DMEM or RPMI medium for 24 h. For the gene silencing studies, the cells were transfected with the indicated amounts of siRNAs, together with the FRET pair constructs. The plasmids and siRNA were diluted in the same jetPRIME transfection buffer, followed by the addition of jetPRIME. […] The lifetime of the mGFP donor fluorophore was measured using a fluorescence microscope (Zeiss AXIO Observer D1) equipped with a fluorescence lifetime imaging attachment (Lambert Instruments), as described previously in detail. The apparent FRET efficiency (Eapp) was calculated as Eapp = (1 − τDA/τD) × 100%, with the measured fluorescence lifetimes τDA of the FRET sample and the τD of the donor-only sample.

[7] = tested on: HIF-1α; test: Western blotting of HIF-1α in nuclear extracts; assay type: cell-based; settings: Western blot of nuclear extracts, 24 h; K-RasG12V-transfected HEK and MDA-MB-231 cells; conglobatin A 5 or 10 μM, 17-AAG 2 μM
Procedure: as §3, §4

[8] = tested on: Gal3; test: Western blotting of galectin-3; assay type: cell-based; settings: Western blot, 24 h; K-RasG12V-transfected HEK and MDA-MB-231 cells
Procedure: The cells were trypsinized, washed with PBS, and lysed in RIPA buffer (cat no. 89900, ThermoFisher Scientific) containing protease and phosphatase inhibitors (cat. no. A32959, ThermoFisher Scientific) and 1 mM phenylmethylsulfonyl fluoride (PMSF). The cells in the RIPA buffer were placed on ice for 20 min, and were then sonicated in ice cold water for 5 min. The lysates were centrifuged at 4 °C, and their protein was quantified using a BCA kit (cat. no. 23225, ThermoFisher Scientific). Equal amounts of protein were separated by 10% SDS-PAGE, and were then transferred onto a nitrocellulose membrane (cat. no. NBA 083C001EA, Protran) using a wet transfer system (Bio-Rad) or semidry Transferblot Turbo Transfer System (Bio-Rad). After the transfer, the membranes were blocked for 30 min in 5% skimmed milk dissolved in 1× TBST, and then incubated with 1:2000 primary antibodies in 5% BSA in TBST at 4 °C overnight. […]
The next day, the membranes were washed three times in TBST for 10 min, and then incubated with secondary antibodies (1:5000) diluted in 5% skimmed milk in TBST for 1 h at RT. […] The protein bands were detected with a ChemiDoc MP instrument (Bio-Rad) after treatment with an ECL reagent (cat. no. 170-5061, BioRad). […]

[9] = tested on: H-RasG12V nanoclustering; test: H-RasG12V nanoclustering-FRET (FLIM-FRET) in HEK cells; assay type: cell-based; settings: 24 h, conglobatin A 2 μM, salinomycin 1.3 μM, CAY10585 10 μM
Procedure: In total, 80,000 HEK cells were seeded in 12-well plates containing sterilized 16-mm coverslips and 1 mL medium. The next day, the cells were transfected using jetPRIME or FuGENE HD transfection reagent. For the donor fluorophore-only samples, the cells were transfected with 500 ng mGFP-tagged RasG12V plasmid. For the nanoclustering-FRET pair samples, the cells were transfected with both the donor and acceptor constructs, i.e., pmGFP- and pmCherry- RasG12V at a plasmid ratio of 1:3, respectively, and a total of 800 ng plasmids. The next day, the cells were treated with either 0.1% DMSO vehicle control or the indicated concentrations of compounds diluted in DMEM or RPMI medium for 24 h. For the gene silencing studies, the cells were transfected with the indicated amounts of siRNAs, together with the FRET pair constructs. The plasmids and siRNA were diluted in the same jetPRIME transfection buffer, followed by the addition of jetPRIME. After 48 h of transfection, the cells were fixed in 4% paraformaldehyde for 10 to 15 min, before being mounted onto slides with Mowiol 4–88 (cat. no. 81381, Sigma-Aldrich). The lifetime of the mGFP donor fluorophore was measured using a fluorescence microscope (Zeiss AXIO Observer D1) equipped with a fluorescence lifetime imaging attachment (Lambert Instruments), as described previously in detail. The apparent FRET efficiency (Eapp) was calculated as Eapp = (1 − τDA/τD) × 100%, with the measured fluorescence lifetimes τDA of the FRET sample and the τD of the donor-only sample.

IC50 [1] | normalized RLU ([2]; RLU normalized to DMSO (=1.00)) | Average RLU ([2]; average of 3 wells (DMSO 248028)) | competition with FITC-geldanamycin (ATP-pocket binding, polarization signal) [3] | normalized RLU (FIMM Screening-1) ([4]; DMSO = 1.00) | normalized RLU (FIMM Screening-2, scaffold based) ([4]; DMSO = 1.00) | Average RLU (FIMM Screening-1) ([4]; mean of 3 wells, DMSO 50019) | Average RLU (FIMM Screening-2, scaffold based) ([4]; mean of 3 wells, DMSO 51006) | Structure (SMILES) | induction of Hsp90 or Hsp70 expression (heat shock response) [5] | K-RasG12V nanoclustering-FRET [6] | nuclear levels of HIF-1α [7] | Gal3 levels [8] | H-RasG12V nanoclustering-FRET [9]
1000 nM | 0.91 | 225640 RLU | significantly reduced the signal | 0.89 | 0.89 | 44367 RLU | 45379 RLU | C=CCNC1=C2C[C@@H](C)C[C@H](OC)[C@H](O)[C@@H](C)/C=C(\C)[C@H](OC(N)=O)[C@@H](OC)/C=C\C=C(/C)C(=O)NC(=CC1=O)C2=O [17-AAG, 17-allylamino-17-demethoxy-geldanamycin, reference compound] | increase in Hsp90 and, in particular, Hsp70 | same selectivity | decreased the nuclear levels of HIF-1α |  | 
 |  |  |  |  |  |  |  | COC(=O)c1ccc(O)c(NC(=O)COc2ccc(C34CC5CC(CC(C5)C3)C4)cc2)c1 [CAY10585] |  | selectively decreased |  | decreased the Gal3 levels | not H-RasG12V nanoclustering-FRET
 |  |  |  |  |  |  |  | CC[C@@H](C(=O)[C@@H](C)[C@@H](O)[C@H](C)[C@@H]1O[C@@H]([C@@H](CC)C(=O)O)CC[C@@H]1C)[C@H]1O[C@]2(C=C[C@@H](O)[C@]3(CC[C@@](C)([C@H]4CC[C@](O)(CC)[C@H](C)O4)O3)O2)[C@H](C)C[C@@H]1C [salinomycin] |  | blocks K-RasG12V- |  |  | not H-RasG12V-nanoclustering
